Measured values reported in ChEMBL document CHEMBL4680169, “Synthesis and bioevaluation of new vascular-targeting and anti-angiogenic thieno[2,3-d]pyrimidin-4(3H)-ones” (Eur J Med Chem, 2020).
Calls of active or inactive are those of the source. The calls are words filed in the database; no cut-off is given here.

Assays:
HCT-116 [1] = assay: cells; format: functional, cell-based; settings: Homo sapiens, HCT-116, 72 h
Description: Cytotoxicity against human HCT-116 p53 mutant cells assessed as inhibition of cell growth after 72 hrs by MTT assay

KB-V1 = assay: cells; format: functional, cell-based; settings: Homo sapiens, KB-V1, 72 h
Description: Cytotoxicity against multidrug resistant human KB-V1 cells assessed as inhibition of cell growth after 72 hrs by MTT assay

518A2 = assay: cells; format: functional, cell-based; settings: Homo sapiens, 518A2, 72 h
Description: Cytotoxicity against human 518A2 cells assessed as inhibition of cell growth after 72 hrs by MTT assay

EA.hy 926 [2] = assay: cells; format: functional, cell-based; settings: Homo sapiens, EA.hy 926, 72 h
Description: Cytotoxicity against human EA.hy 926 cells assessed as inhibition of cell growth after 72 hrs by MTT assay

HCT-116 [3] = assay: cells; format: functional, cell-based; settings: Homo sapiens, HCT-116, 72 h; remark: listed apart in the source
Description: Cytotoxicity against wild type human HCT-116 cells assessed as inhibition of cell growth after 72 hrs by MTT assay

cells = format: ADME, cell-based; settings: Homo sapiens, HDFa, 72 h
Description: Cytotoxicity against human HDfa cells assessed as inhibition of cell growth after 72 hrs by MTT assay

EA.hy 926 [4] = assay: Induction of F-actin cytoskeleton disruption in human EA.hy926 cells at 50 nM assessed as formation of actin stress fibers measured after 3 hrs by DAPI staining based fluorescence microscopic analysis; format: cell-based
Tubulin (Homo sapiens) [5] = molecular target: T1, Tubulin (Homo sapiens) (UniProt P68371+Q9H4B7+P0DPH7+P68366+Q13509+Q71U36+P04350+Q3ZCM7+P07437+P68363+Q9BQE3+Q6PEY2+Q13885+Q9BVA1+Q9BUF5); assay: Induction of microtubule cytoskeleton disruption in human EA.hy926 cells at 50 nM assessed as mitotic catastrophe measured after 24 hrs by DAPI staining based fluorescence microscopic analysis; format: cell-based; settings: EA.hy 926
Tubulin (Homo sapiens) [6] = molecular target: T1, Tubulin (Homo sapiens); assay: Induction of microtubule cytoskeleton disruption in human EA.hy926 cells at 25 nM measured after 24 hrs by DAPI staining based fluorescence microscopic analysis; format: cell-based; settings: EA.hy 926
Sus scrofa = species: Sus scrofa; assay: Inhibition of porcine brain tubulin polymerization at 10 uM measured at 20 sec interval for 2 hrs by turbidometric method
Danio rerio [7] = species: Danio rerio; assay: Antiangiogenic activity in zebrafish embryo assessed as reduction in SIV at 250 nM incubated for 48 hrs by fluorescence microscopic analysis; format: functional; design: scale not given: the % may be the effect or the level left
[8] = molecular target: CDK1/Cyclin A (Homo sapiens) (UniProt P06493+P20248); assay: Inhibition of full length recombinant human CDK1/cyclin A2 expressed in baculovirus infected sf9 cells using histone H1 as substrate incubated for 15 mins in presence of ATP by ADP-Glo assay
EA.hy 926 [9] = assay: Cell cycle arrest in human EA.hy926 cells assessed as accumulation at sub-G1 phase after 24 hrs by propidium iodide staining based flow cytometric analysis; format: functional
EA.hy 926 [10] = assay: Cell cycle arrest in human EA.hy926 cells assessed as accumulation at G2/M phase at 25 to 70 uM after 24 hrs by propidium iodide staining based flow cytometric analysis; format: functional; settings: dose 25-70 µM
Danio rerio [11] = species: Danio rerio; assay: Antiangiogenic activity in zebrafish embryo assessed as reduction in tube formation at 500 nM incubated for 48 hrs by fluorescence microscopic analysis; format: functional; design: scale not given: the % may be the effect or the level left
EA.hy 926 [12] = assay: Antiangiogenic activity in human EA.hy926 cells assessed as reduction in tube formation at 150 nM incubated for 6 hrs by matrigel-based MTT assay; format: functional, cell-based
EA.hy 926 [13] = assay: Vascular disruptive effect in human EA.hy926 cells at 250 nM incubated for 12 hrs by matrigel-based MTT assay; format: functional, cell-based
Chorioallantoic membrane [14] = assay: Antiangiogenic activity in chicken fertilized egg chorioallantoic membrane assessed as reduction in tube formation at 5 nmol incubated for 6 to 24 hrs by CAM assay; format: functional, tissue-based; settings: Gallus gallus, time 6-24 hrs
Chorioallantoic membrane [15] = assay: Vascular disruptive effect in chicken fertilized egg chorioallantoic membrane at 15 nmol incubated for 6 hrs by CAM assay; format: functional, tissue-based; settings: Gallus gallus
Chorioallantoic membrane [16] = assay: Vascular disruptive effect in chicken fertilized egg chorioallantoic membrane at 5 nmol incubated for 24 hrs by CAM assay; format: functional, tissue-based; settings: Gallus gallus
Chorioallantoic membrane [17] = assay: Vascular disruptive effect in chicken fertilized egg chorioallantoic membrane at 15 nmol incubated for 24 hrs by CAM assay; format: functional, tissue-based; settings: Gallus gallus

Sequence of CDK1/Cyclin A (Homo sapiens) (P06493 whole entry, looked up): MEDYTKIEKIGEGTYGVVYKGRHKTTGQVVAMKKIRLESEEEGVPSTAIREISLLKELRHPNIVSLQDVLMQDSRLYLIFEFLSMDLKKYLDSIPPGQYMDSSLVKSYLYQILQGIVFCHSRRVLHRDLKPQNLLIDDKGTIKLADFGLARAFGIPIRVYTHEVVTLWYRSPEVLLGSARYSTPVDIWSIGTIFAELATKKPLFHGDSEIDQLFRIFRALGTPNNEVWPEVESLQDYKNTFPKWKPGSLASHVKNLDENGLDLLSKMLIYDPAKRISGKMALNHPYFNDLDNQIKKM
Sequence of CDK1/Cyclin A (Homo sapiens) (P20248 whole entry, looked up): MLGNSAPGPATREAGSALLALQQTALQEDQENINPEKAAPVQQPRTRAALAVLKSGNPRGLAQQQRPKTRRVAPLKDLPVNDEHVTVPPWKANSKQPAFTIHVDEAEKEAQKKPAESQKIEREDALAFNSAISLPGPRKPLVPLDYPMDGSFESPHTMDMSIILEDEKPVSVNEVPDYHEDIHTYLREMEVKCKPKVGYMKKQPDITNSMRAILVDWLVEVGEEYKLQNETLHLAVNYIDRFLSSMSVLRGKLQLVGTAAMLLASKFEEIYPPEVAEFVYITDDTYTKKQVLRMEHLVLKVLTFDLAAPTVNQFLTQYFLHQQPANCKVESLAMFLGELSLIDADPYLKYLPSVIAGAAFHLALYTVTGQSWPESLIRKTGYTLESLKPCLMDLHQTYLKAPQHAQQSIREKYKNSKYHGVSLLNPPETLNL

SMILES | IC50 (HCT-116 [1]) | IC50 (KB-V1) | IC50 (518A2) | IC50 (EA.hy 926 [2]) | IC50 (HCT-116 [3]) | also measured
COc1cc(-c2nc3sc4c(c3c(=O)[nH]2)CCNC4)cc(Br)c1OC | 7400 nM | 2000 nM | 9300 nM | 11500 nM | 10600 nM | –
C=CC(=O)N1CCc2c(sc3nc(-c4cc(I)c(OC)c(OC)c4)[nH]c(=O)c23)C1 | 700 nM | 1200 nM | 200 nM | 400 nM | 2000 nM | inhibition (Sus scrofa): Active
COc1cc(-c2nc3sc4c(c3c(=O)[nH]2)CCCCC4)cc(Cl)c1OC | 800 nM | 700 nM | 700 nM | 200 nM | 300 nM | –
COc1cc(-c2nc3sc4c(c3c(=O)[nH]2)CCCC4)cc(Cl)c1OC | 1000 nM | 300 nM | 400 nM | 400 nM | 500 nM | –
COc1cc(-c2nc3sc4c(c3c(=O)[nH]2)CCNC4)cc(I)c1OC | 800 nM | 2500 nM | 1400 nM | 1000 nM | 1000 nM | inhibition (Sus scrofa): Active
C=CC(=O)N1CCc2c(sc3nc(-c4cc(Br)c(OC)c(OC)c4)[nH]c(=O)c23)C1 | 4600 nM | 1900 nM | 700 nM | 900 nM | 4300 nM | –
O=c1[nH]c(-c2cc(F)cc(F)c2)nc2sc3c(c12)CCCCC3 | > 100000 nM | > 100000 nM | > 100000 nM | > 100000 nM | > 100000 nM | –
N#Cc1cccc(-c2nc3sc4c(c3c(=O)[nH]2)CCCCC4)c1 | 1000 nM | 18200 nM | 9400 nM | 13100 nM | 3800 nM | –
O=c1[nH]c(-c2cccc(Br)c2)nc2sc3c(c12)CCNC3 | 1400 nM | 2200 nM | 1700 nM | 1600 nM | 1600 nM | –
O=c1[nH]c(-c2cccc(Br)c2)nc2sc3c(c12)CCCCC3 | > 100000 nM | > 100000 nM | > 100000 nM | > 100000 nM | > 100000 nM | –
O=c1[nH]c(-c2cc(F)cc(F)c2)nc2sc3c(c12)CCNC3 | 3600 nM | 6500 nM | 5700 nM | 5400 nM | 6900 nM | –
CCOC(=O)N1CCc2c(sc3nc(-c4cc(F)cc(F)c4)[nH]c(=O)c23)C1 | 4200 nM | 5300 nM | 5200 nM | 4000 nM | 1600 nM | –
COc1ccc(-c2nc3sc4c(c3c(=O)[nH]2)CCNC4)cc1 | 2200 nM | 6700 nM | 3800 nM | 3800 nM | 4000 nM | –
CCOC(=O)N1CCc2c(sc3nc(-c4ccc(OC)c(O)c4)[nH]c(=O)c23)C1 | 5600 nM | 2200 nM | 2300 nM | 4500 nM | 1800 nM | –
COc1cc(-c2nc3sc4c(c3c(=O)[nH]2)CCNC4)cc(Cl)c1OC | 10800 nM | 17000 nM | 16400 nM | 6300 nM | > 100000 nM | –
COc1c(Br)cc(-c2nc3sc4c(c3c(=O)[nH]2)CCNC4)cc1Br | 1500 nM | 6200 nM | 5800 nM | 1000 nM | 1500 nM | –
COc1cc(-c2nc3sc4c(c3c(=O)[nH]2)CCNC4)cc(OC)c1OC | > 100000 nM | > 100000 nM | > 100000 nM | 100000 nM | > 100000 nM | –
CCOC(=O)N1CCc2c(sc3nc(-c4cccnc4)[nH]c(=O)c23)C1 | 39100 nM | 35200 nM | 80000 nM | 100000 nM | 32500 nM | –
CCOC(=O)N1CCc2c(sc3nc(-c4cccc(C#N)c4)[nH]c(=O)c23)C1 | 4300 nM | 7100 nM | 4100 nM | 12500 nM | 4900 nM | –
COc1ccc(/C=C\c2cc(OC)c(OC)c(OC)c2)cc1O [COMBRETASTATIN A4] | 2 nM | 4 nM | 20 nM | 10 nM | 3 nM | IC50 (cells): > 100000 nM; Activity (EA.hy 926 [4]): Active; Activity (Chorioallantoic membrane [16]): Active; Activity (EA.hy 926 [9]): Dose-dependent effect; Activity (Tubulin (Homo sapiens) [6]): Active
COc1c(Br)cc(-c2nc3sc4c(c3c(=O)[nH]2)CCCCC4)cc1Br | 1000 nM | 1400 nM | 400 nM | 1000 nM | 900 nM | –

The remaining compounds from weak to strong by IC50 (HCT-116 [1]), led by results:

IC50 (HCT-116 [1]) | IC50 (KB-V1) | IC50 (518A2) | IC50 (EA.hy 926 [2]) | IC50 (HCT-116 [3]) | SMILES | also measured
700 nM | 700 nM | 2400 nM | 1000 nM | 800 nM | COc1c(Br)cc(-c2nc3sc4c(c3c(=O)[nH]2)CCCC4)cc1Br | –
500 nM | 800 nM | 200 nM | 200 nM | 600 nM | CCOC(=O)N1CCc2c(sc3nc(-c4cc(OC)c(OC)c(OC)c4)[nH]c(=O)c23)C1 | –
500 nM | 2800 nM | 500 nM | 900 nM | 400 nM | COc1cc(-c2nc3sc4c(c3c(=O)[nH]2)CCN(C(C)=O)C4)cc(Br)c1OC | –
500 nM | 300 nM | 500 nM | 200 nM | 400 nM | CCOC(=O)N1CCc2c(sc3nc(-c4cc(Br)c(OC)c(OC)c4)[nH]c(=O)c23)C1 | –
500 nM | 300 nM | 300 nM | 300 nM | 400 nM | COc1cc(-c2nc3sc4c(c3c(=O)[nH]2)CCCC4)cc(Br)c1OC | –
400 nM | 600 nM | 300 nM | 100 nM | 200 nM | COc1cc(-c2nc3sc4c(c3c(=O)[nH]2)CCN(C(C)=O)C4)cc(I)c1OC | inhibition (Sus scrofa): Active
300 nM | 200 nM | 200 nM | 400 nM | 5500 nM | COc1cc(-c2nc(O)c3c4c(sc3n2)CCCC4)cc(OC)c1OC | IC50 (cells): > 100000 nM; Activity (EA.hy 926 [4]): inactive; Activity (Tubulin (Homo sapiens) [5]): Active; Activity (Tubulin (Homo sapiens) [6]): inactive
300 nM | 300 nM | 200 nM | 300 nM | 800 nM | COc1cc(-c2nc3sc4c(c3c(=O)[nH]2)CCCCC4)cc(Br)c1OC | –
200 nM | 600 nM | 200 nM | 200 nM | 300 nM | COc1cc(-c2nc3sc4c(c3c(=O)[nH]2)CCCCC4)cc(I)c1OC | –
200 nM | 1900 nM | 300 nM | 1200 nM | 700 nM | N#Cc1cccc(-c2nc3sc4c(c3c(=O)[nH]2)CCCC4)c1 | –
100 nM | 100 nM | 100 nM | 200 nM | 200 nM | COc1cc(-c2nc3sc4c(c3c(=O)[nH]2)CCCC4)cc(I)c1OC | IC50 (cells): > 100000 nM; Activity (Danio rerio [7]): 18%; inhibition [8]: Active; Activity (EA.hy 926 [4]): Active; inhibition (Sus scrofa): Active; Activity (EA.hy 926 [9]): Dose-dependent effect; Activity (EA.hy 926 [10]): Active; Activity (Danio rerio [11]): 28%; Activity (EA.hy 926 [12]): Active; Activity (EA.hy 926 [13]): Active; Activity (Tubulin (Homo sapiens) [5]): Active; Activity (Chorioallantoic membrane [14]): Active; Activity (Tubulin (Homo sapiens) [6]): inactive; Activity (Chorioallantoic membrane [15]): Active
100 nM | 100 nM | 100 nM | 100 nM | 300 nM | CCOC(=O)N1CCc2c(sc3nc(-c4cc(I)c(OC)c(OC)c4)[nH]c(=O)c23)C1 | IC50 (cells): 13100 nM; inhibition [8]: Active; Activity (EA.hy 926 [4]): Active; Activity (Chorioallantoic membrane [16]): Active; Activity (Chorioallantoic membrane [17]): inactive; inhibition (Sus scrofa): Active; Activity (EA.hy 926 [9]): Dose-dependent effect; Activity (EA.hy 926 [10]): Active; Activity (EA.hy 926 [12]): Active; Activity (EA.hy 926 [13]): Active; Activity (Tubulin (Homo sapiens) [5]): Active; Activity (Chorioallantoic membrane [14]): Active; Activity (Tubulin (Homo sapiens) [6]): inactive
